Data from patent US20040102422A1, “Cancer therapy” (The University of Bristol, priority 2001, published 2004).

Assays:
HeLa cells [1] = experiment: Apoptosis of HeLa cells transiently transfected with pWEB-E2 (HPV 16 E2) or empty pWEB, scored by GFP and Hoechst stain; assay type: cell-based
Procedure: (§1) In all of the following experiments, HeLa cells were maintained in Minimal Essential Medium (MEM: Sigma) supplemented with 10% Foetal Bovine Serum (FBS: Sigma) and penicillin (100,000 U/litre) and streptomycin (100 mg/litre) at 37° C. in 5% CO2. In some cases, supplements (all obtained from Sigma, with the exception of 3-hydroxytamoxifen which was obtained from Research Biochemicals International (RBI)) were added to the media at the concentrations specifically indicated for each separate experiment.
Prior to transient transfection, cells were seeded at 3×10^5 cells per well onto coverslips in 6 well plates and incubated overnight to obtain a sub-confluent culture. The liposome based reagent Tfx-20 (Promega) was used at a 3:1 liposome:DNA ratio in 1 ml serum-free media per transfection, according to the manufacturer's instructions. After 30 hours, the coverslips were washed in phosphate buffered saline (PBS) and the cells fixed in 4% paraformaldehyde/PBS at 22° C. for 30 minutes. Following further washes in PBS, the cells were stained with bisbenzimide (Hoechst No. 33258: Sigma) for 30 minutes. Finally the coverslips were washed in PBS and mounted onto microscope slides in 10 μl MOWIOL (Calbiochem).
Where used, fluorescence microscopy was carried out using a Leica DM IRBE inverted epi-fluorescent microscope with FITC and DAPI filter sets and a 20× air objective (Leica).
The plasmid pWEB-E2 expresses the HPV 16 E2 protein (Webster, K. et al., (2000) supra). Increasing amounts of pWEB-E2 and the empty pWEB vector were transiently transfected into HeLa cells, an HPV 18-transformed cell cervical carcinoma cell line, along with a plasmid (pCMX-GFP3- supplied by Dr Jeremy Tavaré of the Department of Biochemistry, University of Bristol, UK) that expresses the green fluorescent protein (GFP). After 30 hours the cells were fixed and then stained with bisbenzimide (Hoechst stain). Individual cells were scored as untransfected or transfected on the basis of GFP expression and then examined for chromatin condensation and membrane blebbing using Hoechst stain and GFP, respectively (Webster, K. et al., (2000) spra). 100 transfected cells were counted and the experiment was repeated four times.

HeLa cells [2] = experiment: MTT assay of HeLa cell viability / proliferation; assay type: cell-based; conditions: for cell proliferation (number of viable cells, MTT): HeLa cultured in media containing the single agent, read at 24 hour intervals, FIG. 1(d), 1(e)
Procedure: as §1
Where MTT assays were carried out, this involved removal of the media, followed by incubation of the cells in 50 μg/ml MTT (3-(4,5 dimethylthiazol 2-yl) 2,5 diphenyl tetrazolium bromide) for 2 hours at 37° C. The blue formazan crystals were extracted and dissolved in DMSO (dimethylsulfoxide), and the absorbance measured at 560 nm wavelength using an ELISA plate reader (Mosmann, T. (1983) Journal of Immunological Methods 65, 55-631983).
To examine the effects of RU486 and progesterone on cell proliferation, HeLa cells were cultured in media containing RU486 and/or progesterone and at 24 hour intervals the number of viable cells was determined using MTT assays (Mosmann, T. (1983) supra). […] The presence of RU486 has little effect on cell proliferation (FIG. 1(e)).

C[C@]12CC[C@@H]3c4ccc(O)cc4CC[C@H]3[C@@H]1C[C@@H](O)C2=O [16α-hydroxyestrone]
level of E2-induced apoptosis (HeLa cells [1]; pWEB-E2 transfected HeLa incubated 24 hours in media with various concentrations of the hormone, FIG. 2(a), 2(b)): increases the level of E2-induced apoptosis

CC#C[C@]1(O)CC[C@H]2[C@@H]3CCC4=CC(=O)CCC4=C3[C@@H](c3ccc(N(C)C)cc3)C[C@@]21C [RU486, Mifepristone]
levels of apoptosis (HeLa cells [1]; 2 μM progesterone plus 100 nM and 200 nM RU486, compared with 50 nM RU486, FIG. 1(c)): raised compared to those at 50 nM RU486
level of E2-induced apoptosis (HeLa cells [1]; pWEB-E2 transfected HeLa, 2 μM progesterone plus 50 nM RU486, FIG. 1(c)): reduced almost to the background levels
level of apoptosis in the untransfected cells (HeLa cells [1]; progesterone plus 200 nM RU486, FIG. 1(c)): slight increase
cell proliferation (number of viable cells, MTT) (HeLa cells [2]): little effect

CC(=O)[C@H]1CC[C@H]2[C@@H]3CCC4=CC(=O)CC[C@]4(C)[C@H]3CC[C@]12C [progesterone]
levels of E2-induced apoptosis (HeLa cells [1]; HeLa cultured in 2 μM progesterone for one week prior to transfection with pWEB-E2, FIG. 1(b)): significant increase
level of apoptosis in E2 expression plasmid transfected population (HeLa cells [1]; HeLa cultured in 2 μM progesterone one week before transfection and incubated in 2 μM progesterone, no RU486, FIG. 1(c)): high levels of apoptosis
level of apoptosis in cells transfected with the empty pWEB vector (HeLa cells [1]; HeLa cultured in progesterone for one week prior to transfection with pWEB, FIG. 1(b)): around 7%
cell proliferation (number of viable cells, MTT) (HeLa cells [2]): decrease in cell proliferation

CC/C(=C(/c1ccc(OCCN(C)C)cc1)c1cccc(O)c1)c1ccccc1 [3-OHT, 3-hydroxytamoxifen]
percentage of apoptotic cells in the pWEB-transfected population (HeLa cells [1]; empty vector pWEB, presence of estrogen and 3-OHT, FIG. 2(c)): around 5%
percentage of apoptotic cells (HeLa cells [1]; pWEB-E2 transfected HeLa, 400 nM estrogen plus 400 nM 3-OHT, FIG. 2(c)): around 10%
proliferation of HeLa cells (MTT) (HeLa cells [2]; 3-OHT alone or 3-OHT with estrogen, over time, FIG. 2(e), 2(f)): no effect
